Where a name gives a salt, the structure may show the parent alone. Blank lines part the entries; values can stand above or below the compound they belong to.
Key:
Assay type in all cases: physicochemical
[1] = Bimatoprost API/BAK uptake drop test through tip loaded with recrystallized stearic acid flakes (Table 8)
Procedure: Bimatoprost ophthalmic solution (20 mL) was formulated by combining 0.0027 g of Citric Acid Anhydrous (Alfa Aesar L #X16D073), 0.0536 g of Sodium phosphate dibasic, heptahydrate (Fisher chemical L #187384) and 0.1619 g of Sodium Chloride (Fisher chemical L #177082) to 20 g stock solution (2NB70.1) of 300 ppm Bimatoprost and 50 ppm BAK.
Bimatoprost formulation (3 mL), was placed into a 5 mL dropper bottle. Recrystallized Stearic acid flakes (0.116 g) was loaded into a proprietary testing tip. The tip was then placed on the dropper bottle containing the solution.
In a simulated usage, two drops are dispensed and diluted according to the proper method for HPLC analysis. Additional pairs of drops are dispensed at intervals no less than 1 hour apart. A standard consisting of the starting material is taken and diluted according to the specific HPLC method. Then each pair of drops was analyzed on the HPLC. The uptake is determined by comparing the area counts of the starting solution to the area counts of the drop. Bimatoprost has a similar linear signal range as BAK in this formulation so all data is collected from a single drop test. […] In successive drops, the BAK is not detected (e.g., is undetectable, is below a detectable threshold based on UV absorption, etc.).

[2] = Lifitegrast API uptake drop test through tip loaded with 50/50 polypropylene/stearic acid blend (Table 9); details: 5.0% Lifitegrast formulation, 0.328 g 50/50 blend in tip
Procedure: (§1) A Lifitegrast ophthalmic solution (e.g., Xiidra mimic in the table) was prepared, consisting of 5.0% Lifitegrast (BOC Sciences Lot B19V08071), 2.0% Sodium Phosphate Dibasic Anhydrous (J. T. Baker Lot 0000236665), 0.5% Sodium thiosulfate pentahydrate (Fisher Chemical Lot 181801), and 0.005% BAK Aldrich 12063 (Lot #BCBW4741).
(§2) Three mL of the Lifitegrast formulation was placed into a 5 mL dropper bottle. 50/50 polypropylene/steric acid blend (0.328 g) was loaded into a proprietary testing tip. The tip was then placed on the dropper bottle containing the solution.
(§3) In a simulated usage, two drops are dispensed and diluted according to the proper method for HPLC analysis. Due to the relatively high concentration of Lifitegrast, 2 separate drops tests were done for the active pharmaceutical ingredient and BAK. A standard consisting of the starting material is taken and diluted according to the specific HPLC method. Then each pair of drops was analyzed on the HPLC. The uptake is determined by comparing the area counts of the HPLC peaks of the starting solution to the area counts of the drop.

[3] = Timolol Maleate/Brimonidine tartrate API uptake drop test through tip loaded with 20/80 polypropylene/stearic acid powder (Table 6); details: solution 2NB62, 0.32 g stearic acid/polypropylene powder in tip, HPLC area counts of drops vs starting solution
Procedure: (§4) A Timolol Maleate/Brimonidine tartrate ophthalmic solution was prepared (e.g., 2NB62, a Combigan analogue, etc) according to Table 5. The following were added to a 500 mL bottle: 2.151 g of Sodium Phosphate dibasic heptahydrate (Fisher Chemical L #187384), 0.432 g of Sodium Phosphate monobasic monohydrate (Fisher Chemical L #188731), 0.505 g of 0.991% BAK solution (Lot 2NB61), 0.202 g of Brimonidine Tartrate (BOC Sciences L #BV19V06171), and 0.681 g of Timolol Maleate (BOC Sciences L #BS19V04062). Ultra-pure water (100.017 g) of was added and stirred on a rotary shaker overnight to dissolve. Three mL of the solution, 2NB62, was placed into a 5 mL dropper bottle. Stearic acid/polypropylene powder (0.32 g) was loaded into a proprietary testing tip. The tip was then placed on the dropper bottle containing the solution.
In a simulated usage, two drops are dispensed and diluted according to the proper method for HPLC analysis. Additional pairs of drops are dispensed at intervals no less than 1 hour (hr) apart. A standard consisting of the starting material is taken and diluted according to the specific HPLC method. Then each individual drop is analyzed on the HPLC. The uptake is determined by comparing the area counts from the HPLC peaks of the starting solution to the area counts of the drop.

[4] = Lifitegrast BAK uptake drop test through tip loaded with 50/50 polypropylene/stearic acid blend (Table 10)
Procedure: as §1, §2, §3

[5] = Timolol Maleate/Brimonidine tartrate BAK uptake drop test through tip loaded with 20/80 polypropylene/stearic acid powder (Table 7); details: solution 2NB62 through 20/80 blend tip
Procedure: as §4
In a simulated usage, two drops are dispensed and diluted according to the proper method for HPLC analysis. […] Then each individual drop is analyzed on the HPLC. The uptake is determined by comparing the area counts from the HPLC peaks of the starting solution to the area counts of the drop.
A separate, parallel drop test was performed using the same materials to test BAK uptake. […] In successive drops, the BAK is not detected (e.g., is undetectable, is below a detectable threshold based on UV absorption, etc.).

[6] = 300 ppm Bimatoprost / 50 ppm BAK formulation, 0.116 g recrystallized stearic acid flakes in tip

Compound: CC(C)(C)NC[C@H](O)COc1nsnc1N1CCOCC1 [Timolol, Timolol Maleate]
API concentration after passing through the powder in the tip [3]: neither the concentration of Timolol nor Brimonidine are significantly affected

Compound: Benzalkonium chloride [BAK]
BAK in later drops ([4]; drops after the first, Lifitegrast formulation through 50/50 blend tip): not detectable
BAK in first drop ([4]; first drop, Lifitegrast formulation with 0.005% BAK through 50/50 blend tip): only a small amount
BAK in successive drops ([5]; drops after the first, UV detection): not detected
BAK in first drop, share of starting BAK ([5]; first drop): about 5%
BAK after passing through the flakes [1, 6]: eliminated
BAK in successive drops ([1]; successive drops, recrystallized stearic acid flakes tip): not detected

Compound: Brimonidine Tartrate
API concentration after passing through the powder in the tip [3]: neither the concentration of Timolol nor Brimonidine are significantly affected

Further lines, results first:

Bimatoprost concentration after passing through the flakes [1, 6]: not significantly reduced
Compound: CCNC(=O)CCC/C=C\C[C@@H]1[C@@H](/C=C/[C@@H](O)CCc2ccccc2)[C@H](O)C[C@@H]1O [Bimatoprost]

Lifitegrast passage through the tip [2]: not hindered
Compound: CS(=O)(=O)c1cccc(C[C@H](NC(=O)c2c(Cl)cc3c(c2Cl)CCN(C(=O)c2ccc4ccoc4c2)C3)C(=O)O)c1 [Lifitegrast]

From patent US11179294B2, “Preservative removal from eye drops” (TearClear Corp., priority 2019, dated 2021)
